Read-outs that look alike come from different tables or passages of the source.
Legend:
[1] = system: subcutaneous HT-29 xenografts; assay: Tumor growth inhibition experiment with tolerability, CPT11 and Compound 1, simultaneous or 24 hour delay (Example 3); format: in vivo; conditions: single agent; CPT11 100 mg/kg IP single dose; Compound 1 50 mg/kg PO BID 3 consecutive days
Description: (§1) Female nude mice were inoculated subcutaneously with 5 X 10^6 HT-29 tumor cells in 1X PBS (100 µL). Twelve days later, mice were randomized into groups of 6 with an average tumor volume in each group of approximately 250 mm^3. […] Tumor size and animal body weight were measured over the course of the study on the days indicated with data points in Figure 5. Tumor volume was calculated using the formula volume = (width^2 X length)/2.

[2] = Tolerability of CPT11 and Compound 2 with 12, 24 or 48 hour delay in naive mice (Example 4); format: in vivo; conditions: single agent; CPT11 100 mg/kg IP Q10Dx2; Compound 2 25 mg/kg PO BID 3 days per cycle
[3] = system: subcutaneous HT-29 xenografts; format: in vivo; conditions: single agent; CPT11 100 mg/kg IP Q10Dx2; Compound 2 25 mg/kg PO BID
Description: as §1, with “in IX” for “in 1X”, “of 8” for “of 6”, “approximately 215” for “approximately 250”, “Figure 6.” for “Figure 5.”, “the formula:” for “the formula”

[4] = system: subcutaneous HT-29 xenografts; assay: Tumor growth inhibition experiment, CPT11 and Compound 5 (Example 12); format: in vivo; conditions: for Growth Delay / Maximum % Body Weight Loss: single agent, CPT11 100 mg/kg IP Q10Dx2, Compound 5 PO BID 3 days, dose not given
Description: Female nude mice were inoculated subcutaneously with 4 X 10^6 HT-29 tumor cells in 1X PBS (100 µL). Twelve days later, mice were randomized into groups of 7 with an average tumor volume in each group of approximately 200 mm^3. […] Tumor size and animal body weight were measured over the course of the study on the days indicated with data points in Figure 13. Tumor volume was calculated using the formula: volume = (width^2 x length)/2. No mortalities occurred over the course of this study.

[5] = Compound 2 exposure in HT-29 tumor bearing mice after CPT11 (Example 6); format: in vivo, nude mice; conditions: Compound 2 25 mg/kg PO, from 24 hours after CPT11 100 mg/kg; single dose vs 3 consecutive days BID; t-test > 0.05
[6] = system: subcutaneous HT-29 xenografts; format: in vivo; conditions: single agent; gemcitabine 140 mg/kg IP Q7Dx2; Compound 2 PO BID 3 days, dose not given
Description: Female nude mice were inoculated subcutaneously with 5 X 10^6 HT-29 tumor cells in IX PBS (100 µL). Fourteen days later, mice were randomized into groups of 8 with an average tumor volume in each group of approximately 260 mm^3. Sorted animals were administered gemcitabine (140 mg/kg; IP) on a Q7Dx2 cycles schedule. Compound 2 (10 or 25mg/kg: PO, BID) administration was initiated 24 hours post gemcitabine and endured for 3 days as indicated. Tumor size and animal body weight were measured over the course of the study on the days indicated with data points in Figure 9. Tumor volume was calculated using the formula: volume = (width^2 X length)/2. No mortalities occurred over the course of this study.

[7] = system: subcutaneous HT-29 xenografts; assay: Tumor growth inhibition experiment, CPT11 and Compound 2 (Example 11); format: in vivo, nude mice; conditions: in combination with CPT-11; Compound 2 10 or 25 mg/kg PO BID
Description: as §1, with “µL). Fourteen” for “µL). Twelve”, “of 8” for “of 6”, “approximately 260” for “approximately 250”, “Figure 12.” for “Figure 5.”, “the formula: volume=” for “the formula volume =”, “(width^2 x” for “(width^2 X”

phospho-cdc2 = assay: Inhibition of CPT11 induced phosphorylation of cdc2 in HT-29 tumors, immunoblot (Example 7); format: in vivo, nude mice; conditions: extended dosing: 5, 10 or 25 mg/kg PO BID 3 consecutive days from 24 hours after CPT11 100 mg/kg IP; tumors harvested 96 hours post CPT11
Description: Female nude mice were inoculated subcutaneously with 5 X 10^6 HT-29 tumor cells in IX PBS (100 µL). Twenty nine days later, mice were randomized into groups of 3 with an average tumor volume in each group of approximately 500 mm^3. […] Compound 5 was given as a single dose at 25 mg/kg, or alternatively 5, 10, or 25 mg/kg doses were given for 3 consecutive days on BID schedules. […] Phosphorylation of cdc2 was assessed by immunoblot and normalized to total ERK expression. Results are expressed as POC.

[8] = system: subcutaneous HT-29 xenografts; format: in vivo; conditions: for Growth Delay: gemcitabine 120 mg/kg IP Q7Dx3
Description: Female nude mice were inoculated subcutaneously with 5 X 10^6 HT-29 tumor cells in IX PBS (100 µL). Fourteen days later, mice were randomized into groups of 7 with an average tumor volume in each group of approximately 200 mm^3. Sorted animals were administered gemcitabine (120 mg/kg; IP) on a Q7Dx3 cycles schedule. Compound 5 (5, 10 or 25mg/kg; PO. BID) administration was initiated 24 hours post gemcitabine and endured for 3 days as indicated. Tumor size and animal body weight were measured over the course of the study on the days indicated with data points in Figure 10. Tumor volume was calculated using the formula: volume = (width^2 X length)/2. No mortalities occurred over the course of this study.

[9] = system: MiaPaCa2 pancreatic carcinoma xenografts; format: in vivo; conditions: for % Tumor Growth Inhibition / Growth Delay: single agent, gemcitabine 120 mg/kg IP Q7Dx3, Compound 5 given as 10 mg/kg in table
Description: female nude mice were inoculated subcutaneously with 7 X 10^6 MiaPaCa2 tumor cells in a 1:1 1X PBS and matrigel suspension (100 µL). Fifteen days later, mice were randomized into groups of 7 with an average tumor volume in each group of approximately 315 mm^3. Sorted animals were administered gemcitabine (120 mg/kg; IP) on a Q7Dx3 cycles schedule. […] Tumor size and animals body weight were measured over the course of the study on the days indicated with data points in Figure 11. Tumor volume was calculated using the formula: volume = (width^2 X length)/2. No mortalities occurred over the course of this study.

[10] = single agent, Compound 5 10 mg/kg PO BID 3 days

SMILES	Maximum % Body Weight Loss [1]	% Mortality [2] [%]	Maximum % Body Weight Loss [2]	Growth Delay [3] [days]	Growth Delay [4] [days]	Maximum % Body Weight Loss [4]	Growth Delay [6] [days]	Growth Delay [8, 10] [days]	% Tumor Growth Inhibition [9]	Growth Delay [9] [days]	further results
CCc1c2c(nc3ccc(OC(=O)N4CCC(N5CCCCC5)CC4)cc13)-c1cc3c(c(=O)n1C2)COC(=O)[C@]3(O)CC [CPT11, irinotecan, reference compound]	3.9, Day 13%	0	3.4. Day 14%	16	16.6	6.3, Day 18%	–	–	–	–	% Mortality [1]: 0%
N[C@@H]1CCCN(c2c(Br)cnc3[nH]cc(NC(=O)c4cccnc4)c23)C1 [Compound 1, (R)-N-(4-(3-aminopiperidin-1-yl)-5-bromo-1H-pyrrolo[2,3-b]pyridin-3-yl)nicotinamide]	3.9, Day 13%	–	–	–	–	–	–	–	–	–	–
CC(C)C(=O)Nc1c[nH]c2ncc(Br)c(N3CCC[C@@H](N)C3)c12 [Compound 2, (R)-N-(4-(3-aminopiperidin-1-yl)-5-bromo-1H-pyrrolo[2,3-b]pyridin-3-yl)isobutyramide]	–	0	0.3, Day 17%	1.8	–	–	4.78	–	–	–	Maximum % Body Weight Loss [3]: 7.2, Dav 3%; exposure following a single dose or administration for 3 days [5]: not statistically_different; inhibition of tumor growth [7]: dose related inhibition of tumor growth
N[C@@H]1CCCN(c2c(Br)cnc3[nH]cc(NC(=O)C4CC4)c23)C1 [Compound 5, (R)-N-(4-(3-aminopiperidin-1-yl)-5-bromo-1H-pyrrolo[2,3-b]pyridin-3-yl)cyclopropanecarboxamide]	–	–	–	–	7.7	2.5, Dav 18%	–	5.7	25,5%	6.1	inhibition of CPT11 induced phospho-cdc2 (phospho-cdc2): dose-related inhibition; inhibition of tumor growth ([8]; in combination with gemcitabine, Compound 5 5, 10 or 25 mg/kg PO BID): dose related inhibition of tumor growth; % Regression [8, 10]: 31.6%; tumor growth ([9]; in combination with gemcitabine, MiaPaCa2 pancreatic carcinoma xenografts): inhibits tumor growth; inhibition of tumor growth ([4]; in combination with CPT-11, Compound 5 5, 10 or 25 mg/kg PO BID): dose related inhibition of tumor growth
Nc1ccn([C@@H]2O[C@H](CO)[C@@H](O)C2(F)F)c(=O)n1 [Gemcitabine, gemcitabine, reference compound]	–	–	–	–	–	–	4.39	11.5	6.6%	2.2	–
